According to US20250223268A1, “4-Methylsulfonylbenzamide Compound, Preparation Method, Herbicidal Composition And Use” (Jiangsu Flag Chemical Industry Co., Ltd., priority 2022, published 2025):

Key:
Type in all cases: in vivo
Leptochloa chinensis [1] = assay: Greenhouse herbicidal activity assay, post-emergence; details: Post-emergence test, rate 150 g a.i./hm^2, grade by fresh weight inhibition rate; for pest or weed control at 150 g/ha: Dinebra chinensis, read-out: Control efficacy grade, Leptochloa chinensis
Method in brief: (§1)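 Scores reflect fresh weight inhibition assessed 14-21 days after treatment, with grade A meaning ≥80% to 100% and grade E meaning <20%. Plants, raised in nutrient-soil pots inside a growth chamber, were sprayed on the foliage at the 3-6 leaf stage.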

Cyperus iria = assay: as above; details: Post-emergence test, rate 150 g a.i./hm^2, grade by fresh weight inhibition rate; for pest or weed control at 150 g/ha: Cyperus iria, read-out: Control efficacy grade, Cyperus iria
Method in brief: as §1

Eclipta prostrata = assay: as above; details: Post-emergence test, rate 150 g a.i./hm^2, grade by fresh weight inhibition rate; for pest or weed control at 150 g/ha: Eclipta prostrata, read-out: Control efficacy grade, Eclipta prostrata
Method in brief: as §1

Echinochloa crusgalli [2] = assay: as above; details: Post-emergence test, rate 150 g a.i./hm^2, grade by fresh weight inhibition rate; for pest or weed control at 150 g/ha: Echinochloa crus-galli, read-out: Control efficacy grade, Echinochloa crusgalli
Method in brief: as §1

Digitaria sanguinalis = assay: as above; details: Post-emergence test, rate 150 g a.i./hm^2, grade by fresh weight inhibition rate; for pest or weed control at 150 g/ha: Digitaria sanguinalis, read-out: Control efficacy grade, Digitaria sanguinalis
Method in brief: as §1

Leptochloa chinensis [3] = assay: Greenhouse herbicidal activity and crop safety comparison (Test Example 2); details: for inhibition at 150 g/ha: Dinebra chinensis, read-out: Leptochloa chinensis, control efficacy grading (fresh weight inhibition rate)
Method in brief: (§2)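 Fresh weight inhibition, banded into grades A to E (E <20%), was rated 14-21 days after foliar spraying of 3-6 leaf plants, or 14-30 days after a soil spray applied 24 h post-sowing.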

[4] = tested on: Oryza sativa subsp. japonica; assay: as above
Method in brief: as §2

[5] = tested on: Oryza sativa subsp. indica; assay: as above
Method in brief: as §2

Echinochloa crusgalli [6] = assay: as above; details: for inhibition at 150 g/ha: Echinochloa crus-galli, read-out: Echinochloa crusgalli, control efficacy grading (fresh weight inhibition rate)
Method in brief: as §2

Compound | Control efficacy grade, Leptochloa chinensis (Leptochloa chinensis [1]) | Control efficacy grade, Cyperus iria (Cyperus iria) | Control efficacy grade, Eclipta prostrata (Eclipta prostrata) | Control efficacy grade, Echinochloa crusgalli (Echinochloa crusgalli [2]) | Control efficacy grade, Digitaria sanguinalis (Digitaria sanguinalis) | Leptochloa chinensis, control efficacy grading (fresh weight inhibition rate) (Leptochloa chinensis [3]; Rate 150 g/ha) | Oryza sativa subsp. japonica, grading of fresh weight inhibition rate (crop safety) ([4]; Rate 150 g/ha) | Oryza sativa subsp. indica, grading of fresh weight inhibition rate (crop safety) ([5]; Rate 150 g/ha) | Echinochloa crusgalli, control efficacy grading (fresh weight inhibition rate) (Echinochloa crusgalli [6]; Rate 150 g/ha) | pest or weed control at 150 g/ha (Leptochloa chinensis [1]) [%] | pest or weed control at 150 g/ha (Cyperus iria) [%] | pest or weed control at 150 g/ha (Eclipta prostrata) [%] | pest or weed control at 150 g/ha (Echinochloa crusgalli [2]) [%] | pest or weed control at 150 g/ha (Digitaria sanguinalis) [%] | inhibition at 150 g/ha (Leptochloa chinensis [3]; Rate 150 g/ha) [%] | inhibition at 150 g/ha (Echinochloa crusgalli [6]; Rate 150 g/ha) [%] | Leptochloa chinensis, control efficacy grading (fresh weight inhibition rate) (Leptochloa chinensis [3]; Rate 250 g/ha) | Oryza sativa subsp. japonica, grading of fresh weight inhibition rate (crop safety) ([4]; Rate 250 g/ha) | Oryza sativa subsp. indica, grading of fresh weight inhibition rate (crop safety) ([5]; Rate 250 g/ha) | Echinochloa crusgalli, control efficacy grading (fresh weight inhibition rate) (Echinochloa crusgalli [6]; Rate 250 g/ha)
CCCS(=O)(=O)c1c(S(C)(=O)=O)ccc(C(=O)Nc2nnc(CC)o2)c1Cl [Compound 3-387] | A (Fresh weight inhibition rate≥80% to 100%) | A (Fresh weight inhibition rate≥80% to 100%) | A (Fresh weight inhibition rate≥80% to 100%) | A (Fresh weight inhibition rate≥80% to 100%) | A (Fresh weight inhibition rate≥80% to 100%) | A (Fresh weight inhibition rate≥80% to 100%) | E (Fresh weight inhibition rate<20%) | E (Fresh weight inhibition rate<20%) | A (Fresh weight inhibition rate≥80% to 100%) |  |  |  |  |  |  |  |  |  |  | 
CCc1nnc(NC(=O)c2ccc(S(C)(=O)=O)c(S(=O)(=O)C(C)C)c2Cl)o1 [Compound 3-392, 2-chloro-N-(5-ethyl-1,3,4-oxadiazol-2-yl)-3-(isopropylsulfonyl)-4-(methylsulfonyl)benzamide] |  |  |  |  |  |  | E (Fresh weight inhibition rate<20%) | E (Fresh weight inhibition rate<20%) |  | 80 to 100 | 80 to 100 | 80 to 100 | 80 to 100 | 80 to 100 | 80 to 100 | 80 to 100 |  |  |  | 
CCc1nnc(NC(=O)c2ccc(S(C)(=O)=O)c(S(=O)(=O)CC3CC3)c2Cl)o1 [Compound 3-418] | A (Fresh weight inhibition rate≥80% to 100%) | A (Fresh weight inhibition rate≥80% to 100%) | A (Fresh weight inhibition rate≥80% to 100%) | A (Fresh weight inhibition rate≥80% to 100%) | A (Fresh weight inhibition rate≥80% to 100%) | A (Fresh weight inhibition rate≥80% to 100%) | E (Fresh weight inhibition rate<20%) | E (Fresh weight inhibition rate<20%) | A (Fresh weight inhibition rate≥80% to 100%) |  |  |  |  |  |  |  |  |  |  | 
Cc1nnc(NC(=O)c2ccc(S(C)(=O)=O)c(S(=O)(=O)C3CCCC3)c2Cl)o1 [Compound 3-91] | A (Fresh weight inhibition rate≥80% to 100%) | A (Fresh weight inhibition rate≥80% to 100%) | A (Fresh weight inhibition rate≥80% to 100%) | A (Fresh weight inhibition rate≥80% to 100%) | A (Fresh weight inhibition rate≥80% to 100%) | A (Fresh weight inhibition rate≥80% to 100%) | E (Fresh weight inhibition rate<20%) | E (Fresh weight inhibition rate<20%) | A (Fresh weight inhibition rate≥80% to 100%) |  |  |  |  |  |  |  |  |  |  | 
CS(=O)(=O)c1ccc(C(=O)Nc2nnco2)c(Cl)c1S(=O)(=O)C1CCC1 [Compound 3-312] | A (Fresh weight inhibition rate≥80% to 100%) | A (Fresh weight inhibition rate≥80% to 100%) | A (Fresh weight inhibition rate≥80% to 100%) | A (Fresh weight inhibition rate≥80% to 100%) | A (Fresh weight inhibition rate≥80% to 100%) | A (Fresh weight inhibition rate≥80% to 100%) | E (Fresh weight inhibition rate<20%) | E (Fresh weight inhibition rate<20%) | A (Fresh weight inhibition rate≥80% to 100%) |  |  |  |  |  |  |  |  |  |  | 
Cc1nnc(NC(=O)c2ccc(S(C)(=O)=O)c(S(=O)(=O)CC(C)C)c2Cl)o1 [Compound 3-31] | A (Fresh weight inhibition rate≥80% to 100%) | A (Fresh weight inhibition rate≥80% to 100%) | A (Fresh weight inhibition rate≥80% to 100%) | B (Fresh weight inhibition rate≥260% to <80%) | A (Fresh weight inhibition rate≥80% to 100%) |  |  |  |  |  |  |  |  |  |  |  | A (Fresh weight inhibition rate≥80% to 100%) | E (Fresh weight inhibition rate<20%) | E (Fresh weight inhibition rate<20%) | A (Fresh weight inhibition rate≥80% to 100%)
CS(=O)(=O)c1ccc(C(=O)Nc2nnco2)c(Cl)c1S(=O)(=O)C1CC1 [Compound 3-307] | A (Fresh weight inhibition rate≥80% to 100%) | A (Fresh weight inhibition rate≥80% to 100%) | A (Fresh weight inhibition rate≥80% to 100%) | A (Fresh weight inhibition rate≥80% to 100%) | A (Fresh weight inhibition rate≥80% to 100%) | A (Fresh weight inhibition rate≥80% to 100%) | E (Fresh weight inhibition rate<20%) | E (Fresh weight inhibition rate<20%) | A (Fresh weight inhibition rate≥80% to 100%) |  |  |  |  |  |  |  |  |  |  | 
CCCS(=O)(=O)c1c(S(C)(=O)=O)ccc(C(=O)Nc2nnc(C(C)C)o2)c1Cl [Compound 3-503, 2-chloro-N-(5-isopropyl-1,3,4-oxadiazol-2-yl)-4-(methylsulfonyl)-3-(propylsulfonyl)benzamide] |  |  |  |  |  |  | E (Fresh weight inhibition rate<20%) | E (Fresh weight inhibition rate<20%) |  | 80 to 100 | 80 to 100 | 80 to 100 | 80 to 100 | 80 to 100 | 80 to 100 | 80 to 100 |  |  |  | 
CCCCS(=O)(=O)c1c(S(C)(=O)=O)ccc(C(=O)Nc2nnc(C)o2)c1Cl [Compound 3-15] | B (Fresh weight inhibition rate≥260% to <80%) | B (Fresh weight inhibition rate≥260% to <80%) | A (Fresh weight inhibition rate≥80% to 100%) | B (Fresh weight inhibition rate≥260% to <80%) | B (Fresh weight inhibition rate≥260% to <80%) |  |  |  |  |  |  |  |  |  |  |  | A (Fresh weight inhibition rate≥80% to 100%) | E (Fresh weight inhibition rate<20%) | E (Fresh weight inhibition rate<20%) | A (Fresh weight inhibition rate≥80% to 100%)
C=CCS(=O)(=O)c1c(S(C)(=O)=O)ccc(C(=O)Nc2nnco2)c1Cl [Compound 3-342] | A (Fresh weight inhibition rate≥80% to 100%) | A (Fresh weight inhibition rate≥80% to 100%) | A (Fresh weight inhibition rate≥80% to 100%) | A (Fresh weight inhibition rate≥80% to 100%) | A (Fresh weight inhibition rate≥80% to 100%) | A (Fresh weight inhibition rate≥80% to 100%) | E (Fresh weight inhibition rate<20%) | E (Fresh weight inhibition rate<20%) | A (Fresh weight inhibition rate≥80% to 100%) |  |  |  |  |  |  |  |  |  |  | 
